Assay results taken from ChEMBL document CHEMBL3397009, “Synthesis and biological evaluation of aryl isoxazole derivatives as metabotropic glutamate receptor 1 antagonists: a potential treatment for neuropathic pain” (Bioorg Med Chem Lett, 2015).
Active and inactive are the calls of the source.

Key:
[1] = molecular target: Voltage-gated inwardly rectifying potassium channel KCNH2 (Homo sapiens, UniProt Q12809); assay: Inhibition of human ERG
[2] = molecular target: Metabotropic glutamate receptor 5 (Homo sapiens) (UniProt P41594); assay: Antagonist activity against human mGluR5 expressed in HEK cells assessed as inhibition of L-glutamate-induced intracellular calcium levels at 1 uM after 18 hrs; type: functional, cell-based; conditions: HEK293
CYP2D6 = CYP2D6 (Homo sapiens, UniProt P10635); assay: Inhibition of CYP2D6 (unknown origin) assessed as remaining enzyme activity at 10 uM; type: ADME; conditions: read-out: Activity
CYP2C9 = CYP2C9 (Homo sapiens, UniProt P11712); assay: Inhibition of CYP2C9 (unknown origin) assessed as remaining enzyme activity at 10 uM; type: ADME; conditions: read-out: Activity
Rattus norvegicus [3] = assay: Analgesic activity in rat model of spinal nerve ligation-induced neuropathic pain assessed as reduction in cold allodynia by measuring paw withdrawal in response to acetone application at 100 mg/kg, po administered on day 14 after ligation surgery and measured 3 hrs post dose; type: functional, organism-based; design: dose 100 mg/kg
CYP3A4 = CYP3A4 (Homo sapiens, UniProt P08684); assay: Inhibition of CYP3A4 (unknown origin) assessed as remaining enzyme activity at 10 uM; type: ADME; conditions: read-out: Activity
[4] = molecular target: Metabotropic glutamate receptor 5 (Homo sapiens) (UniProt P41594); assay: Antagonist activity against human mGluR5 expressed in HEK cells assessed as inhibition of L-glutamate-induced intracellular calcium levels at 10 uM after 18 hrs; type: functional, cell-based; conditions: HEK293
[5] = molecular target: Metabotropic glutamate receptor 1 (Homo sapiens) (UniProt Q13255); assay: Antagonist activity against human mGluR1 expressed in HEK cells assessed as inhibition of L-glutamate-induced intracellular calcium levels at 10 uM after 18 hrs; type: functional, cell-based; conditions: HEK293
Rattus norvegicus [6] = assay: Analgesic activity in rat model of spinal nerve ligation-induced neuropathic pain assessed as reduction in mechanical threshold for paw withdrawal at 100 mg/kg, po administered on day 14 after ligation surgery and measured 3 hrs post dose by Von Frey filaments based method; type: functional, organism-based; design: dose 100 mg/kg
CYP2C19 = CYP2C19 (Homo sapiens, UniProt P33261); assay: Inhibition of CYP2C19 (unknown origin) assessed as remaining enzyme activity at 10 uM; type: ADME; conditions: read-out: Activity
CYP1A2 = molecular target: T1, CYP1A2 (Homo sapiens, UniProt P05177); assay: Inhibition of CYP1A2 (unknown origin) assessed as remaining enzyme activity at 10 uM; type: ADME; conditions: read-out: Activity
T1 sequence (P05177 whole entry): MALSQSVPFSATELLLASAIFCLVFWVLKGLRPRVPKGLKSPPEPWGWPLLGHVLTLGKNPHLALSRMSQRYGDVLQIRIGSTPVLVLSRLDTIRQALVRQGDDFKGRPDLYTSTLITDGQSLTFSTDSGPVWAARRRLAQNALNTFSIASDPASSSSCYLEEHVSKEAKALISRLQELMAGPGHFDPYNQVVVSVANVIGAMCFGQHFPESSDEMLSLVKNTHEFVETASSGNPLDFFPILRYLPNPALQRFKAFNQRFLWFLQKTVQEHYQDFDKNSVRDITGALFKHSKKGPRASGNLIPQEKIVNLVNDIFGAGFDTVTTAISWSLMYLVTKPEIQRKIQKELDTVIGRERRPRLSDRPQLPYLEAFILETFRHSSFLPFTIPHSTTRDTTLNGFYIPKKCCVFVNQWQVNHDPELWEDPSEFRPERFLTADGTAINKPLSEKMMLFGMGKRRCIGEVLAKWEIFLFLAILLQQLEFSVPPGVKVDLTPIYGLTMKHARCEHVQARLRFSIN

[7] = molecular target: Metabotropic glutamate receptor 1 (Homo sapiens) (UniProt Q13255); assay: Antagonist activity against human mGluR1 expressed in HEK cells assessed as inhibition of L-glutamate-induced intracellular calcium levels at 1 uM after 18 hrs; type: functional, cell-based; conditions: HEK293

CYP3A4, sequence (P08684 whole entry): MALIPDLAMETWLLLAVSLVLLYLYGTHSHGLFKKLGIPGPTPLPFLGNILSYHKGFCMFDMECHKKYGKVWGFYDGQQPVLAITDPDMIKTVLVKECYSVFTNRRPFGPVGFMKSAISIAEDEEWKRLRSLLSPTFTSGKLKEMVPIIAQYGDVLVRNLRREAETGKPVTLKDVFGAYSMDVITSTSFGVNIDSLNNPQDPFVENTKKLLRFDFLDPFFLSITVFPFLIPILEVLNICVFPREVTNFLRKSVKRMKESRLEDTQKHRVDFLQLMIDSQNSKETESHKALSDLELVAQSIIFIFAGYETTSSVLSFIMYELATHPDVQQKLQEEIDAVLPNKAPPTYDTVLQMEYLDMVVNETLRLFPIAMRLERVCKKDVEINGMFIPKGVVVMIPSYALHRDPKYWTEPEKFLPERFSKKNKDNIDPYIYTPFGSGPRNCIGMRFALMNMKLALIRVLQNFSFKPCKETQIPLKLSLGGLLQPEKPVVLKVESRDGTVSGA
Metabotropic glutamate receptor 5 (Homo sapiens), sequence (P41594 21-1212 limits assumed): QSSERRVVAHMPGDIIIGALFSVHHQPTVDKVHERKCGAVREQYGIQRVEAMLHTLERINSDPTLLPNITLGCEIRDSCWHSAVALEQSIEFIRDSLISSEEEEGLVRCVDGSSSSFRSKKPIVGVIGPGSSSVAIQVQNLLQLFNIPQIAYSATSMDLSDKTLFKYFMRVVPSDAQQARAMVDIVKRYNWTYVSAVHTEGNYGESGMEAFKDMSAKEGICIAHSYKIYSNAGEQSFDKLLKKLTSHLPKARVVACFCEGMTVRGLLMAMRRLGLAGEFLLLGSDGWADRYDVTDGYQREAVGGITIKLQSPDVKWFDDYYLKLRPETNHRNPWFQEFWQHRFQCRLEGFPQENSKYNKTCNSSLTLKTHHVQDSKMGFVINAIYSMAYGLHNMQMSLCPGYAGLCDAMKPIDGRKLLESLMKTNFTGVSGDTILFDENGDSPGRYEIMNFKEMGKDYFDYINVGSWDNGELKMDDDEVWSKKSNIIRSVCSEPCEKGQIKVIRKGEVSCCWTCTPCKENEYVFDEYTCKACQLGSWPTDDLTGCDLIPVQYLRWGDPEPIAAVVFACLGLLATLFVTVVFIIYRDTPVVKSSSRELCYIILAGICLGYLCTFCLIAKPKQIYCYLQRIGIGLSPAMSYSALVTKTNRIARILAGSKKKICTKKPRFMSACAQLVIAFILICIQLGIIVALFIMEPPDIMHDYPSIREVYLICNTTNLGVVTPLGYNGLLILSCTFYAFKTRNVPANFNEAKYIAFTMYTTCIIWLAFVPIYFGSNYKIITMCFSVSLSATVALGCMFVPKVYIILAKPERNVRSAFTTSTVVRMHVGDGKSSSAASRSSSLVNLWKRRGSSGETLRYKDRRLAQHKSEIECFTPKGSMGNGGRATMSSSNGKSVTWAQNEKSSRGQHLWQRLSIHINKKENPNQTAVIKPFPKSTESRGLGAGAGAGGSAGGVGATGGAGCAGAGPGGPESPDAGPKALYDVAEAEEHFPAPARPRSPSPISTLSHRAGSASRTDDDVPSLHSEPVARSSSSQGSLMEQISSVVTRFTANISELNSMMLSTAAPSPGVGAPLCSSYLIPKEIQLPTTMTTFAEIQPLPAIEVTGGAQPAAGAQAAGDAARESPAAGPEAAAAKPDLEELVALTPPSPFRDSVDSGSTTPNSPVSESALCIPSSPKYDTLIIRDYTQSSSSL
CYP2C19, sequence (P33261 whole entry): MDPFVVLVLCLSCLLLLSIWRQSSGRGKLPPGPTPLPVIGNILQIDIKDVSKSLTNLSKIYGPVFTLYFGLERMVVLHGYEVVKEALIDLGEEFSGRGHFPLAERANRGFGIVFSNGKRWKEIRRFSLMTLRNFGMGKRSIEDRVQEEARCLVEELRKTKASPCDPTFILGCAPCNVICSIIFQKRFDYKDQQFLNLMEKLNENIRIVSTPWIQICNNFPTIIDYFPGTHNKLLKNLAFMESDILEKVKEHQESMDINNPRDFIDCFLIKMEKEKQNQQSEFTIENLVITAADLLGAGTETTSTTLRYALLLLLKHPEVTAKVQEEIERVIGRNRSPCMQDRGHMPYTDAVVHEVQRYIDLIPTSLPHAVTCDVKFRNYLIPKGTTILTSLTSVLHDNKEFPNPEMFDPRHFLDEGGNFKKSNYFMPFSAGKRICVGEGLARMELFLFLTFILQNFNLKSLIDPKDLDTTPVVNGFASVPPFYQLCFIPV
Metabotropic glutamate receptor 1 (Homo sapiens), sequence (Q13255 19-1194 limits assumed): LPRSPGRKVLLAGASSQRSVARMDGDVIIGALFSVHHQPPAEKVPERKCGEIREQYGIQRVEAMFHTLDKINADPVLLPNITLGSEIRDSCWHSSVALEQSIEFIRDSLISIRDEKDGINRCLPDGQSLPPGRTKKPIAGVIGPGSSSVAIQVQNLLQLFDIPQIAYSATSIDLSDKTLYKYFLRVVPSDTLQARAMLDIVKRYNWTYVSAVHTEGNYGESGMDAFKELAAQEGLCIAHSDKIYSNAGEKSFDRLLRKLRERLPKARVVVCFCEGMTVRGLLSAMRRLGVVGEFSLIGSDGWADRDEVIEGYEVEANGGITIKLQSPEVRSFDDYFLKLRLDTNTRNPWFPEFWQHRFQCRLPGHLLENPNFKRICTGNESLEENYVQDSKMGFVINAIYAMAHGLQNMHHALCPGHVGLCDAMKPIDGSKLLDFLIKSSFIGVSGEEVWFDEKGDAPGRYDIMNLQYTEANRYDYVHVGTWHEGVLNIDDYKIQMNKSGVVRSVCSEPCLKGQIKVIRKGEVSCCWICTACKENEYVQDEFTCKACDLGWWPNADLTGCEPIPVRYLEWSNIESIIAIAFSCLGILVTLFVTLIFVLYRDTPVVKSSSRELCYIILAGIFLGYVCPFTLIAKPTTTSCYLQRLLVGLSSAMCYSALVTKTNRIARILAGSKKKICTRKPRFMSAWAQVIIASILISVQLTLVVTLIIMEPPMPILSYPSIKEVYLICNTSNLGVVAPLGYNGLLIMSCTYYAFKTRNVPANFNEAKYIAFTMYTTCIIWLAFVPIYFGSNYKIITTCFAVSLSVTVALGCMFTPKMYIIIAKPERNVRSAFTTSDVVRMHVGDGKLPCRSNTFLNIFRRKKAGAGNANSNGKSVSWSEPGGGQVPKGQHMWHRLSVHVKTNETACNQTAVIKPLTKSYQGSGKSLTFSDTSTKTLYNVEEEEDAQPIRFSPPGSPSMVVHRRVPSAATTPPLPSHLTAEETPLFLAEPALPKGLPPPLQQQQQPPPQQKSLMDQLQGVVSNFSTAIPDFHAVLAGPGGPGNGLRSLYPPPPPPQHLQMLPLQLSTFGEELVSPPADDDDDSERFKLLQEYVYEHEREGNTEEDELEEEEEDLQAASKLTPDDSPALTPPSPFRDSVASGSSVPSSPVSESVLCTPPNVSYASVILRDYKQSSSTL
CYP2C9, sequence (P11712 whole entry): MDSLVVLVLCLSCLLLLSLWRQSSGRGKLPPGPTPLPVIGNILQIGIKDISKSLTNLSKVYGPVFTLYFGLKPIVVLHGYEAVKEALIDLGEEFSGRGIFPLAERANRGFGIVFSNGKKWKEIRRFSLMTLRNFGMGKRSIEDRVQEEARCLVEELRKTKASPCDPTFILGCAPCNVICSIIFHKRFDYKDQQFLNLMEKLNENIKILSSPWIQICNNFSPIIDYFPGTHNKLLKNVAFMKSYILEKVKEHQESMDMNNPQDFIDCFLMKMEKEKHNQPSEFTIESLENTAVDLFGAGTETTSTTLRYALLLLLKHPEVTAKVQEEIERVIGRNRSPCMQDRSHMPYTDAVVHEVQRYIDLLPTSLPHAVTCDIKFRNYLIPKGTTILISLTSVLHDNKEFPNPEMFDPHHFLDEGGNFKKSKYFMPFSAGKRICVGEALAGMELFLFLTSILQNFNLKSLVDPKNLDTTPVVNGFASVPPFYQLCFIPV
CYP2D6, sequence (P10635 whole entry): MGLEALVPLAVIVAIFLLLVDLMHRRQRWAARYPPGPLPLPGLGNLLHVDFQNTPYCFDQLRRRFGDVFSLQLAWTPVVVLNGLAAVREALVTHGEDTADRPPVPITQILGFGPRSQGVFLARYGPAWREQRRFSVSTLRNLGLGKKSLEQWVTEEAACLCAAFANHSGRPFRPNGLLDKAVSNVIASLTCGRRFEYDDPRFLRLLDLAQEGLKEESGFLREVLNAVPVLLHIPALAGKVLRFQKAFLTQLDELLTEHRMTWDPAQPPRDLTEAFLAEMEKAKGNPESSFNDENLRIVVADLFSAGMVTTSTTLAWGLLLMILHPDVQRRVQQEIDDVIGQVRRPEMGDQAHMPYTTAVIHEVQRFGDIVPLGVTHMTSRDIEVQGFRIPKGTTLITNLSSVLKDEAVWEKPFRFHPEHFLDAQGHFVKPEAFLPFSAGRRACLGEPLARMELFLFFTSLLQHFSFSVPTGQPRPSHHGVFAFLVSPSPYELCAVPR

SMILES: CC(C)N1Cc2cc(-c3cc(-c4ccc(Cl)nc4)no3)ccc2C1=O
- IC50 [1]: 40 µM
- inhibition [2]: 22.7%
- activity at 10 µM (CYP2D6): 91.3%
- activity at 10 µM (CYP2C9): 104%
- Activity (Rattus norvegicus [3]): Active
- activity at 10 µM (CYP3A4): 94.5%
- inhibition [4]: 36.5%
- inhibition [5]: 47.1%
- Activity (Rattus norvegicus [6]): Active
- activity at 10 µM (CYP2C19): 56.6%
- activity at 10 µM (CYP1A2): 92.6%
- inhibition [7]: 45.4%

SMILES: CC(C)N1C(=O)c2ccc(-c3cc(-c4ccc(Cl)cc4)no3)cc21
- inhibition [2]: 12.2%
- inhibition [4]: 10.3%
- inhibition [5]: 33.9%
- inhibition [7]: 16.4%

SMILES: CC(C)N1Cc2cc(-c3cc(-c4ccccc4F)no3)ccc2C1=O
- inhibition [2]: 21.9%
- activity at 10 µM (CYP2D6): 45.8%
- activity at 10 µM (CYP2C9): 39.8%
- activity at 10 µM (CYP3A4): 107%
- inhibition [4]: 22.5%
- inhibition [5]: 88.6%
- activity at 10 µM (CYP2C19): 58.4%
- activity at 10 µM (CYP1A2): 42.5%
- inhibition [7]: 56.3%

SMILES: COc1ccc(-c2cc(-c3ccc4c(c3)N(C(C)C)C4=O)on2)cc1
- inhibition [2]: 13.6%
- inhibition [4]: 15.9%
- inhibition [5]: 2.44%
- inhibition [7]: 11.3%

SMILES: NCC1(CC(=O)O)CCCCC1
- Activity (Rattus norvegicus [3]): Active
- Activity (Rattus norvegicus [6]): Active

SMILES: Cc1ccc(-c2cc(-c3ccc4c(c3)CN(C(C)C)C4=O)on2)cn1
- inhibition [2]: 14%
- inhibition [4]: 34.4%
- inhibition [5]: 62.6%
- inhibition [7]: 4.53%

SMILES: Cc1c(-c2ccc(F)cc2F)noc1-c1ccc2c(c1)CN(C(C)C)C2=O
- inhibition [2]: 7.95%
- activity at 10 µM (CYP2D6): 104%
- activity at 10 µM (CYP2C9): 2.55%
- activity at 10 µM (CYP3A4): 98%
- inhibition [4]: 26.3%
- inhibition [5]: 87.6%
- activity at 10 µM (CYP2C19): 59.2%
- activity at 10 µM (CYP1A2): 89.6%
- inhibition [7]: 31.9%

SMILES: COc1ccc(-c2cc(-c3ccc4c(c3)CN(C(C)C)C4=O)on2)cn1
- IC50 [1]: 12 µM
- inhibition [2]: 5.29%
- activity at 10 µM (CYP2D6): 87.5%
- activity at 10 µM (CYP2C9): 91.8%
- Activity (Rattus norvegicus [3]): Active
- activity at 10 µM (CYP3A4): 95.6%
- inhibition [4]: 29.2%
- inhibition [5]: 59.6%
- Activity (Rattus norvegicus [6]): Active
- activity at 10 µM (CYP2C19): 85.9%
- activity at 10 µM (CYP1A2): 90.7%
- inhibition [7]: 16.6%

SMILES: Cc1c(-c2ccc(Cl)nc2)noc1-c1ccc2c(c1)CN(C(C)C)C2=O
- inhibition [2]: 22.2%
- inhibition [4]: 26.3%
- inhibition [5]: 56.9%
- inhibition [7]: 47.1%

SMILES: COc1ccc(-c2noc(-c3ccc4c(c3)N(C(C)C)C4=O)c2C)cc1
- inhibition [5]: 13.7%
- inhibition [7]: 9.68%

SMILES: COc1ccc(-c2noc(-c3ccc4c(c3)CN(C(C)C)C4=O)c2C)cn1
- inhibition [2]: 33.5%
- inhibition [4]: 30.8%
- inhibition [5]: 46.5%
- inhibition [7]: 49.1%

SMILES: Cc1c(-c2ccc3c(c2)CN(C(C)C)C3=O)nnn1-c1ccc(F)cc1F
- Activity (Rattus norvegicus [3]): Active
- inhibition [5]: 93.1%
- Activity (Rattus norvegicus [6]): Active
- inhibition [7]: 92.5%

SMILES: CC(C)N1C(=O)c2ccc(-c3cc(-c4ccc(F)cc4F)no3)cc21
- inhibition [5]: 17.3%
- inhibition [7]: 11.7%

SMILES: Cc1c(-c2ccc(Cl)cc2)noc1-c1ccc2c(c1)N(C(C)C)C2=O
- inhibition [2]: 9.46%
- inhibition [4]: 28.7%
- inhibition [5]: 49.1%
- inhibition [7]: 20.3%

SMILES: CC(C)N1Cc2cc(-c3cc(-c4ccc(F)cc4F)no3)ccc2C1=O
- inhibition [2]: 17.7%
- inhibition [4]: 13.4%
- inhibition [5]: 36.5%
- inhibition [7]: 39.8%

SMILES: CC(C)N1C(=O)c2ccc(-c3cc(-c4ccc(F)cc4)no3)cc21
- inhibition [2]: 1.82%
- inhibition [4]: 34%
- inhibition [5]: 50.4%
- inhibition [7]: 12.8%

SMILES: CC(C)N1C(=O)c2ccc(-c3cc(-c4ccccc4F)no3)cc21
- inhibition [2]: 14.9%
- activity at 10 µM (CYP2D6): 57.1%
- activity at 10 µM (CYP2C9): 32%
- Activity (Rattus norvegicus [3]): inactive
- activity at 10 µM (CYP3A4): 120%
- inhibition [4]: 18.3%
- inhibition [5]: 91.1%
- Activity (Rattus norvegicus [6]): inactive
- activity at 10 µM (CYP2C19): 33.2%
- activity at 10 µM (CYP1A2): 98.7%
- inhibition [7]: 68%

SMILES: Cc1ccc(-c2cc(-c3ccc4c(c3)CN(C(C)C)C4=O)on2)cc1
- inhibition [2]: 21.8%
- inhibition [4]: 15%
- inhibition [5]: 25.1%
- inhibition [7]: 37.4%

SMILES: COc1ccc(-c2cc(-c3ccc4c(c3)CN(C(C)C)C4=O)on2)cc1
- inhibition [2]: 15.4%
- inhibition [4]: 15.1%
- inhibition [5]: 35.1%
- inhibition [7]: 41%

SMILES: CC(C)N1C(=O)c2ccc(-c3cc(-c4ccc(Cl)nc4)no3)cc21
- inhibition [2]: 16.1%
- inhibition [4]: 10.1%
- inhibition [5]: 7.77%
- inhibition [7]: 12.3%

SMILES: CC(C)N1Cc2cc(-c3cc(-c4cccnc4F)no3)ccc2C1=O
- inhibition [5]: 42.3%
- inhibition [7]: 23.4%

SMILES: Cc1c(-c2ccc(Cl)cc2)noc1-c1ccc2c(c1)CN(C(C)C)C2=O
- inhibition [2]: 11.7%
- inhibition [4]: 23.4%
- inhibition [5]: 61.6%
- inhibition [7]: 30.7%

SMILES: Cc1c(-c2ccc(F)cc2)noc1-c1ccc2c(c1)CN(C(C)C)C2=O
- inhibition [2]: 8.16%
- inhibition [4]: 18.7%
- inhibition [5]: 62.8%
- inhibition [7]: 38.4%
